Measurements published in patent US12043632B2, “6-heteroaryloxy benzimidazoles and azabenzimidazoles as JAK2 inhibitors” (Ajax Therapeutics, Inc., priority 2020, dated 2024).

Target: T1, JAK2 (JH1domain-catalytic, Y1007F,Y1008F) kinase (Homo sapiens, UniProt O60674, Y1007F/Y1008F)
T1 construct: JAK2 (JH1domain-catalytic, Y1007F,Y1008F) kinase was expressed as N-terminal fusion; made in house; host or cells: transiently transfected HEK293 cells
Test: JAK2 JH1 Domain Binding Assay
Settings: qPCR readout

T1 sequence (O60674 849-1124 Y1007F/Y1008F limits assumed): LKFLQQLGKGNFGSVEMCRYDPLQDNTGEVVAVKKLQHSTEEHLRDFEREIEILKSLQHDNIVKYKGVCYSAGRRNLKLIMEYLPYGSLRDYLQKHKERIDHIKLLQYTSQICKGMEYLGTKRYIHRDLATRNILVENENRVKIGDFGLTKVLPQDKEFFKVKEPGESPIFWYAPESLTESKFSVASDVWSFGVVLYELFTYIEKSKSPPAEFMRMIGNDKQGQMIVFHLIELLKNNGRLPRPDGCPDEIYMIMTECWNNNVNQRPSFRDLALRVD

Row | SMILES | Kd
1 | CN1CC[C@H](n2nc(Nc3nc4ncc(Oc5cnn6ccncc56)c(Cl)c4n3C)cc2C(C)(C)C)C1 [Example I-31, (S)—N-(5-(tert-butyl)-1-(1-methylpyrrolidin-3-yl)-1H-pyrazol-3-yl)-7-chloro-1-methyl-6-(pyrazolo[1,5-a]pyrazin-3-yloxy)-1H-imidazo[4,5-b]pyridin-2-amine] | < 10 nM
2 | CN1CC[C@@H](n2nc(Nc3nc4ncc(Oc5cnn6ccncc56)c(Cl)c4n3C)cc2C(C)(C)C)C1 [Example I-32, (R)—N-(5-(tert-butyl)-1-(1-methylpyrrolidin-3-yl)-1H-pyrazol-3-yl)-7-chloro-1-methyl-6-(pyrazolo[1,5-a]pyrazin-3-yloxy)-1H-imidazo[4,5-b]pyridin-2-amine] | < 10 nM
3 | Cn1c(Nc2cc(C(C)(C)C)n(C3CC4(COC4)C3)n2)nc2ncc(Oc3cnn4ccnc4c3)c(Cl)c21 [Example I-33, N-(5-(tert-butyl)-1-(2-oxaspiro[3.3]heptan-6-yl)-1H-pyrazol-3-yl)-7-chloro-6-(imidazo[1,2-b]pyridazin-7-yloxy)-1-methyl-1H-imidazo[4,5-b]pyridin-2-amine] | 10 to 50 nM
4 | Cn1c(Nc2cc(C(C)(C)C)n(CC(F)F)n2)nc2ncc(Oc3cnn4ccncc34)c(Cl)c21 [Example I-34, N-(5-(tert-butyl)-1-(2,2-difluoroethyl)-1H-pyrazol-3-yl)-7-chloro-1-methyl-6-(pyrazolo[1,5-a]pyrazin-3-yloxy)-1H-imidazo[4,5-b]pyridin-2-amine] | < 10 nM
5 | CN1CC[C@H](n2nc(Nc3nc4ncc(Oc5cnn6ccnc6c5)c(Cl)c4n3C)cc2C(C)(C)C)C1 [Example I-35, (S)—N-(5-(tert-butyl)-1-(1-methylpyrrolidin-3-yl)-1H-pyrazol-3-yl)-7-chloro-6-(imidazo[1,2-b]pyridazin-7-yloxy)-1-methyl-1H-imidazo[4,5-b]pyridin-2-amine] | 10 to 50 nM
6 | CN1CC[C@@H](n2nc(Nc3nc4ncc(Oc5cnn6ccnc6c5)c(Cl)c4n3C)cc2C(C)(C)C)C1 [Example I-36, (R)—N-(5-(tert-butyl)-1-(1-methylpyrrolidin-3-yl)-1H-pyrazol-3-yl)-7-chloro-6-(imidazo[1,2-b]pyridazin-7-yloxy)-1-methyl-1H-imidazo[4,5-b]pyridin-2-amine] | 50 to 1000 nM
7 | CN1CC[C@H](n2nc(Nc3nc4ncc(Oc5cnc6scnc6c5)c(C(F)F)c4n3C)cc2C(C)(C)C)C1 [Example I-39, (S)—N-(5-(tert-butyl)-1-(1-methylpyrrolidin-3-yl)-1H-pyrazol-3-yl)-7-(difluoromethyl)-1-methyl-6-(thiazolo[5,4-b]pyridin-6-yloxy)-1H-imidazo[4,5-b]pyridin-2-amine] | 10 to 50 nM
8 | CN1CC[C@@H](n2nc(Nc3nc4ncc(Oc5cnc6scnc6c5)c(C(F)F)c4n3C)cc2C(C)(C)C)C1 [Example I-40, (R)—N-(5-(tert-butyl)-1-(1-methylpyrrolidin-3-yl)-1H-pyrazol-3-yl)-7-(difluoromethyl)-1-methyl-6-(thiazolo[5,4-b]pyridin-6-yloxy)-1H-imidazo[4,5-b]pyridin-2-amine] | 10 to 50 nM
9 | Cn1c(Nc2cc(C(C)(C)C)n(C3CC4(COC4)C3)n2)nc2ncc(Oc3cnc4ccnn4c3)c(Cl)c21 [Example I-42, N-(5-(tert-butyl)-1-(2-oxaspiro[3.3]heptan-6-yl)-1H-pyrazol-3-yl)-7-chloro-1-methyl-6-(pyrazolo[1,5-a]pyrimidin-6-yloxy)-1H-imidazo[4,5-b]pyridin-2-amine] | 10 to 50 nM
10 | Cn1c(Nc2cc(C(C)(C)C)n([C@H]3CCN(CCF)C3)n2)nc2ncc(Oc3cnn4ccncc34)c(C(F)F)c21 [Example I-43, (S)—N-(5-(tert-butyl)-1-(1-(2-fluoroethyl)pyrrolidin-3-yl)-1H-pyrazol-3-yl)-7-(difluoromethyl)-1-methyl-6-(pyrazolo[1,5-a]pyrazin-3-yloxy)-1H-imidazo[4,5-b]pyridin-2-amine] | 10 to 50 nM
11 | Cn1c(Nc2cc(C(C)(C)C)n([C@@H]3CCN(CCF)C3)n2)nc2ncc(Oc3cnn4ccncc34)c(C(F)F)c21 [Example I-44, (R)—N-(5-(tert-butyl)-1-(1-(2-fluoroethyl)pyrrolidin-3-yl)-1H-pyrazol-3-yl)-7-(difluoromethyl)-1-methyl-6-(pyrazolo[1,5-a]pyrazin-3-yloxy)-1H-imidazo[4,5-b]pyridin-2-amine] | 50 to 1000 nM
12 | COc1c(Oc2cnc3sccc3c2)cnc2nc(Nc3cc(C(C)(C)C)n([C@H]4CCN(C)C4)n3)n(C)c12 [Example I-45, (S)—N-(5-(tert-butyl)-1-(1-methylpyrrolidin-3-yl)-1H-pyrazol-3-yl)-7-methoxy-1-methyl-6-(thieno[2,3-b]pyridin-5-yloxy)-1H-imidazo[4,5-b]pyridin-2-amine] | 10 to 50 nM
13 | COc1c(Oc2cnc3sccc3c2)cnc2nc(Nc3cc(C(C)(C)C)n([C@@H]4CCN(C)C4)n3)n(C)c12 [Example I-46, (R)—N-(5-(tert-butyl)-1-(1-methylpyrrolidin-3-yl)-1H-pyrazol-3-yl)-7-methoxy-1-methyl-6-(thieno[2,3-b]pyridin-5-yloxy)-1H-imidazo[4,5-b]pyridin-2-amine] | 50 to 1000 nM
14 | Cn1c(Nc2cc(C(C)(C)C)n(C3CC4(COC4)C3)n2)nc2ncc(Oc3cnn4ccncc34)c(Cl)c21 [Example I-49, N-(5-(tert-butyl)-1-(2-oxaspiro[3.3]heptan-6-yl)-1H-pyrazol-3-yl)-7-chloro-1-methyl-6-(pyrazolo[1,5-a]pyrazin-3-yloxy)-1H-imidazo[4,5-b]pyridin-2-amine] | < 10 nM
15 | COc1c(Oc2cnn3ccncc23)cnc2nc(Nc3cc(C(C)(C)C)n([C@H]4CCN(CCF)C4)n3)n(C)c12 [Example I-50, (S)—N-(5-(tert-butyl)-1-(1-(2-fluoroethyl)pyrrolidin-3-yl)-1H-pyrazol-3-yl)-7-methoxy-1-methyl-6-(pyrazolo[1,5-a]pyrazin-3-yloxy)-1H-imidazo[4,5-b]pyridin-2-amine] | 10 to 50 nM
16 | COCCN1CC[C@H](n2nc(Nc3nc4ncc(Oc5cnn6ccncc56)c(C(F)F)c4n3C)cc2C(C)(C)C)C1 [Example I-51, (S)—N-(5-(tert-butyl)-1-(1-(2-methoxyethyl)pyrrolidin-3-yl)-1H-pyrazol-3-yl)-7-(difluoromethyl)-1-methyl-6-(pyrazolo[1,5-a]pyrazin-3-yloxy)-1H-imidazo[4,5-b]pyridin-2-amine] | 10 to 50 nM
17 | Cn1c(Nc2cc(C(C)(C)C)n(C3CC4(COC4)C3)n2)nc2ncc(Oc3cnn4ccncc34)c(C(F)F)c21 [Example I-53, N-(5-(tert-butyl)-1-(2-oxaspiro[3.3]heptan-6-yl)-1H-pyrazol-3-yl)-7-(difluoromethyl)-1-methyl-6-(pyrazolo[1,5-a]pyrazin-3-yloxy)-1H-imidazo[4,5-b]pyridin-2-amine] | < 10 nM
18 | Cn1c(Nc2cc(C(C)(C)C)n(CC#N)n2)nc2ncc(Oc3cnn4ccncc34)c(Cl)c21 [Example I-54, 2-(5-(tert-butyl)-3-((7-chloro-1-methyl-6-(pyrazolo[1,5-a]pyrazin-3-yloxy)-1H-imidazo[4,5-b]pyridin-2-yl)amino)-1H-pyrazol-1-yl)acetonitrile] | 10 to 50 nM
19 | Cn1c(Nc2cc(C(C)(C)C)n([C@H]3C[C@H](O)C3)n2)nc2ncc(Oc3cnn4ccncc34)c(Cl)c21 [Example I-55, trans-3-(5-(tert-butyl)-3-((7-chloro-1-methyl-6-(pyrazolo[1,5-a]pyrazin-3-yloxy)-1H-imidazo[4,5-b]pyridin-2-yl)amino)-1H-pyrazol-1-yl)cyclobutan-1-ol] | < 10 nM
20 | Cn1cc(C2CC2)cc(Nc2nc3ncc(Oc4cnn5ccncc45)c(Cl)c3n2C)c1=O [Example I-57, 3-((7-chloro-1-methyl-6-(pyrazolo[1,5-a]pyrazin-3-yloxy)-1H-imidazo[4,5-b]pyridin-2-yl)amino)-5-cyclopropyl-1-methylpyridin-2(1H)-one] | < 10 nM
21 | COCCn1cc(C2CC2)cc(Nc2nc3ncc(Oc4cnn5ccncc45)c(OC)c3n2C)c1=O [Example I-58, 5-cyclopropyl-3-((7-methoxy-1-methyl-6-(pyrazolo[1,5-a]pyrazin-3-yloxy)-1H-imidazo[4,5-b]pyridin-2-yl)amino)-1-(2-methoxyethyl)pyridin-2(1H)-one] | < 10 nM
22 | Cn1cc(C2CC2)cc(Nc2nc3ncc(Oc4cnn5ccncc45)c(C(F)F)c3n2C)c1=O [Example I-59, 5-cyclopropyl-3-((7-(difluoromethyl)-1-methyl-6-(pyrazolo[1,5-a]pyrazin-3-yloxy)-1H-imidazo[4,5-b]pyridin-2-yl)amino)-1-methylpyridin-2(1H)-one] | < 10 nM
23 | Cn1c(Nc2cc(C(C)(C)C)n(CCC#N)n2)nc2ncc(Oc3cnn4ccncc34)c(Cl)c21 [Example I-61, 3-(5-(tert-butyl)-3-((7-chloro-1-methyl-6-(pyrazolo[1,5-a]pyrazin-3-yloxy)-1H-imidazo[4,5-b]pyridin-2-yl)amino)-1H-pyrazol-1-yl)propanenitrile] | < 10 nM
24 | COc1c(Oc2cnn3ccncc23)cnc2nc(Nc3cc(C(C)(C)C)n([C@@H]4CCN(CCF)C4)n3)n(C)c12 [Example I-62, (R)—N-(5-(tert-butyl)-1-(1-(2-fluoroethyl)pyrrolidin-3-yl)-1H-pyrazol-3-yl)-7-methoxy-1-methyl-6-(pyrazolo[1,5-a]pyrazin-3-yloxy)-1H-imidazo[4,5-b]pyridin-2-amine] | 10 to 50 nM
25 | Cn1c(Nc2cc(C(C)(C)C)n(CC#N)n2)nc2ncc(Oc3cnn4ccncc34)c(C(F)F)c21 [Example I-63, 2-(5-(tert-butyl)-3-((7-(difluoromethyl)-1-methyl-6-(pyrazolo[1,5-a]pyrazin-3-yloxy)-1H-imidazo[4,5-b]pyridin-2-yl)amino)-1H-pyrazol-1-yl)acetonitrile] | 10 to 50 nM
26 | COc1c(Oc2cnn3ccncc23)cnc2nc(Nc3cc(C4CC4)cn(C)c3=O)n(C)c12 [Example I-64, 5-cyclopropyl-3-((7-methoxy-1-methyl-6-(pyrazolo[1,5-a]pyrazin-3-yloxy)-1H-imidazo[4,5-b]pyridin-2-yl)amino)-1-methylpyridin-2(1H)-one] | < 10 nM
